From PMC4789591, “Involvement of Daphnia pulicaria Sir2 in regulating stress response and lifespan” (Aging (Albany NY), 2016) come the findings set out here.

Molecules are shown by their SMILES.

In this assay the target is T1, Daphnia Sir2 (Daphnia pulicaria, UniProt A0A0U3BSS1).
T1 construct: full-length ORF, N-terminal FLAG tag, pcDNA3.1-, in vitro translated in rabbit reticulocyte lysate (TNT T7), not purified; calculated mass 67 kD
T1 sequence (A0A0U3BSS1 1-601): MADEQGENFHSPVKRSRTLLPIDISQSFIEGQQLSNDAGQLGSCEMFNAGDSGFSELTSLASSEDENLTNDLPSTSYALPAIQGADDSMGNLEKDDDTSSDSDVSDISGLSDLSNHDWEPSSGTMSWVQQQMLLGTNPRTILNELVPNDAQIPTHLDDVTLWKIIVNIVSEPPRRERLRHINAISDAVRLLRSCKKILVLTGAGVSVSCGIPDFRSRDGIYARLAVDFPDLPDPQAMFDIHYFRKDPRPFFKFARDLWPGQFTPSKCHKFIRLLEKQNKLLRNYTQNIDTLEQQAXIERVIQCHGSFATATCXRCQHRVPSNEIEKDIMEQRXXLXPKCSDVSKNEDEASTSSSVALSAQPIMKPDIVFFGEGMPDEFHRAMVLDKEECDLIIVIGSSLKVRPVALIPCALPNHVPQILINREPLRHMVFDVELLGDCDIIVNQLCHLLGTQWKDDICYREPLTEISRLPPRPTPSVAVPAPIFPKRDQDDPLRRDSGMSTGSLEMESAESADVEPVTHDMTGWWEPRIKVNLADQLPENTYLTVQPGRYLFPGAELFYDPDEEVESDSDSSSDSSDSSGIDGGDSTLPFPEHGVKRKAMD
The assay is described as follows: fluorogenic acetylated-peptide deacetylase assay (Abcam ab156065). Format: biochemical. The following applies: in vitro translated protein in reticulocyte lysate, lysate background subtracted; inhibitor concentration not told for this test; peptidase-coupled.

Take `NC(=O)C1CCCc2c1[nH]c1ccc(Cl)cc21` (stereo not shown) [Ex527]: the “inhibition of deacetylase activity” value is “human recombinant Sirt1 as well as Daphnia Sir2 activity is significantly diminished by the inhibitor”.
